By IC50 is commonly meant the concentration that inhibits the measured activity by half.

We go through five compounds from article PMC6923474 (Scientific Reports, 2019).

The test system of one data set is NMDA receptors (NMDARs). As to the kind of experiment: Whole-cell patch-clamp of NMDA-activated currents in primary cultures of cortical neurons. The format is cell-based, rat. On the procedure:
All manipulations on animals were performed in accordance with the guide of the Federation for Laboratory Animal Science Associations and were approved by the Animal Care and Use Committees of Sechenov Institute. Briefly, 16 days pregnant Wistar rats (14 female rats used in this study, supplied by the Sechenov Institute Animal Facility) were placed in a plastic box connected to a CO2 tank by a tube and then sacrificed by 1 min CO2 inhalation. Fetuses were removed and then primary cultures of rat cortical neurons were prepared using conventional procedures as described earlier[27],[66]. Neurons were grown in Neurobasal culture medium supplemented with B-27 (Gibco-Invitrogen, UK) on glass coverslips coated with poly-D-lysine and were used for experiments after 10–15 days in culture[66],[67].
Whole-cell currents were recorded from cultured rat cortical neurons using a MultiClamp 700B patch-clamp amplifier with Digidata 1440 A controlled by pClamp v10.2 software (Molecular Devices). Recordings were 8-order low-pass filtered at 200 Hz and the acquisition rate was 20000 samples per second. Solution exchange was performed by means of a fast solution application system as described earlier. Unless otherwise specified, the external bathing solution contained (in mM): 140 NaCl; 2.8 KCl; 1.0 CaCl2; 10 HEPES, at pH 7.2–7.4, osmolarity 310 mOsm. The intrapipette solution contained (in mM): 120 CsF, 10 CsCl, 10 EGTA, and 10 HEPES, osmolarity 300 mOsm[14], with pH adjusted to 7.4 with CsOH. Patch pipettes of 2–4 MΩ were pulled from Sutter BF150-89-10 borosilicate capillaries. Experiments were performed at 23–25 °C. Under control conditions, neurons were voltage clamped at −70 mV. Data are reported without corrections for liquid junction potential, which was measured as −11 mV. To activate NMDARs, 100 µM NMDA and 30 µM glycine were co-applied. Some experiments were performed on neurons loaded with BAPTA. To load BAPTA, cortical neuron cultures were incubated in bathing solution containing 10 µM BAPTA-AM for 2 hours.
Whole-cell membrane currents activated by NMDA were measured at steady state. The fraction of blocked current was calculated as 1 − Ib/Ic, where Ic is the amplitude of current activated by agonists and Ib is the amplitude of current activated by agonists in the presence of blocker.
Amplitudes of currents measured in the presence of blocker were normalized to maximal current response in control (Ic). […]
The obtained values were fitted with the Woodhull equation[36]:6 IC50(Vm)=IC50(0mV)⋅exp(VmzδF/RT) where IC50(0 mV) and δ were set as free parameters. […] For Faraday constant, gas constant and room temperature of 25 °C the RT/F ≈ 25.7 mV.
The rise time of currents activated by the testing NMDA + Gly application in trapping channel block experiments was fit in ClampFit (pClamp, Axon Instruments) using the double exponential function:7 I=I1·exp(−t/τ1)+I2⋅exp(−t/τ2)−C where I1 and I2 are amplitudes of the exponential and τ1 and τ2 are time constants of the exponential and C equals I1 + I2 + Ib.
(Patch clamp records ionic current or voltage across a cell membrane.)

A further data set has as its system NMDARs. Conditions: cited from earlier work.
For data set [1] the following is noted: cited from earlier work.
For the next data set, the system named is GluN1/GluN2A NMDARs. Also noted: method as in PMID 28877967. Conditions: Ca2+-dependent manner; not GluN1/GluN2B receptors; cited from earlier work.

Entries after “also recorded” stand apart in the source; their conditions may differ. Like-named read-outs stand apart in the source and are kept apart here. A value given as a limit tells only on which side of the number the result lay.

Regarding `Br.Br.NCCCCCNCC12CC3CC(CC(C3)C1)C2` [IEM-1754, N-(tricyclo[3.3.1.13,7]dec-1-ylmethyl)-1,5-pentanediamine dihydrobromide], the “Ca2+ dependence of block of NMDA-activated currents” value in the data set on NMDA receptors (NMDARs) (10 μM IEM-1754, −70 mV, 2 mM vs 0.25 mM Ca2+) is “resistant to a 4-fold increase of [Ca^2+]”.

In the case of `CNC1(c2ccccc2Cl)CCCCC1=O` (centres unmarked) [ketamine], in the data set on NMDARs, the “sensitivity of NMDAR block to external [Ca2+]” value is “no sensitivity to changes in external [Ca^2+]” and the “δ, fraction of the membrane electric field” value is given as 0.55.

Regarding `CN(C)CCC=C1c2ccccc2CCc2ccccc21` [ATL, amitriptyline], the “ATL concentrations required for the NMDAR channel block” value with NMDARs was 15 to 60 µM. Moreover, the “concentrations showing voltage-dependent open-channel block of NMDARs” value with NMDA receptors (NMDARs) is listed as more than 70 µM. The “decrease of IC50 per 1 mM increase of external [Ca2+]” value in the data set on NMDA receptors (NMDARs) is listed as “roughly 5 fold”. In addition, the “voltage dependence of block of NMDAR currents” value is listed as “voltage dependence was not observed; also recorded: voltage-independent” in the data set with NMDA receptors (NMDARs) (10 μM ATL, 1 mM Ca2+, −70 mV vs −30 mV); “did not find any voltage dependence” in the data set with NMDA receptors (NMDARs) (20 μM ATL, 2 mM Ca2+, −40 mV to +40 mV); “depended on membrane voltage; also recorded: voltage-dependent” in the data set on NMDA receptors (NMDARs) (100 μM ATL, 1 mM Ca2+, −70 mV vs −30 mV). In addition, the “Ca2+ dependence of inhibition of NMDAR currents” value in the data set with NMDA receptors (NMDARs) (10 μM ATL, −70 mV, 2 mM vs 0.25 mM Ca2+) is reported as “far more pronounced in 2 mM Ca^2+- than in 0.25 Ca^2+- containing media”. In the data set with NMDA receptors (NMDARs) (100 μM ATL, 0.25 mM or 2 mM Ca2+, −70 mV), the “effect on closed NMDARs (ATL applied prior to NMDA)” value is given as “did not significantly affect currents activated by NMDA”. Moreover, the “type of open-channel block (trapping protocol)” value in the data set with NMDA receptors (NMDARs) (200 µM ATL, 0.25 mM Ca2+, −70 mV) was “did not cause tail currents; also recorded: partial trapping”. Further, the “τs, slow rise time constant of test current (ATL unblock)” value with NMDA receptors (NMDARs) (200 µM ATL, washout delay 0.5 s, −70 mV, 0.25 mM Ca2+) is reported as 11 ± 3.2 s; in the data set with NMDA receptors (NMDARs) (200 µM ATL, washout delay 1 s, −70 mV, 0.25 mM Ca2+), 13 ± 5.7 s; with NMDA receptors (NMDARs) (200 µM ATL, washout delay 2 s, −70 mV, 0.25 mM Ca2+) it was 13.2 ± 4.0 s; in the data set on NMDA receptors (NMDARs) (200 µM ATL, washout delay 4 s, −70 mV, 0.25 mM Ca2+), 15 ± 2.9 s. Moreover, the “voltage shift giving an e-fold change of IC50” value in the data set on NMDA receptors (NMDARs) (0.25 mM Ca2+) came to 50 mV. In addition, the “δ, fraction of the membrane electric field (Woodhull model)” value in the data set on NMDA receptors (NMDARs) (0.25 mM Ca2+, Eq. 6) is reported as 0.51. For the same compound, the “fraction of ATL inhibition of NMDAR currents (1-Ib/Ic)” value in the data set with NMDA receptors (NMDARs) (ATL 10 μM, −30 mV, [Ca2+] 0.25 mM) is reported as 0.12 ± 0.05; in the data set with NMDA receptors (NMDARs) (ATL 10 μM, −30 mV, [Ca2+] 2 mM), 0.30 ± 0.05; with NMDA receptors (NMDARs) (ATL 10 μM, −70 mV, [Ca2+] 0.25 mM), 0.13 ± 0.06; in the data set on NMDA receptors (NMDARs) (ATL 10 μM, −70 mV, [Ca2+] 2 mM), 0.42 ± 0.04; with NMDA receptors (NMDARs) (ATL 100 μM, −30 mV, [Ca2+] 0.25 mM), 0.40 ± 0.07; in the data set with NMDA receptors (NMDARs) (ATL 100 μM, −30 mV, [Ca2+] 2 mM), 0.35 ± 0.04. The “fraction of ATL inhibition of NMDAR currents (1-Ib/Ic)” value came out at 0.79 ± 0.05 in the data set on NMDA receptors (NMDARs) (ATL 100 μM, −70 mV, [Ca2+] 0.25 mM); 0.79 ± 0.03 with NMDA receptors (NMDARs) (ATL 100 μM, −70 mV, [Ca2+] 2 mM); 0.85 ± 0.06 in the data set with NMDA receptors (NMDARs) (co-application of agonists and 100 μM ATL, −70 mV, [Ca2+] 0.25 mM); 0.85 ± 0.05 in the data set with NMDA receptors (NMDARs) (co-application of agonists and 100 μM ATL, −70 mV, [Ca2+] 2 mM); 0.12 ± 0.01 in the data set on NMDA receptors (NMDARs) (pre-application of 100 μM ATL, −70 mV, [Ca2+] 0.25 mM); 0.17 ± 0.03 in the data set with NMDA receptors (NMDARs) (pre-application of 100 μM ATL, −70 mV, [Ca2+] 2 mM). Besides, the IC50 is 0.7 to 7 µM in the data set on NMDA receptors (NMDARs) ([Ca2+] 2–4 mM, read-out: IC50 values at physiological extracellular [Ca2+]); 91 µM with NMDA receptors (NMDARs) (extrapolated to 0 mM Ca2+, −70 mV, read-out: IC50 at [Ca2+] = 0, single exponential approximation); 220 µM with NMDA receptors (NMDARs) (extrapolated to 0 mV, 0.25 mM Ca2+, read-out: IC50 (0 mV), fit with Woodhull equation (Eq. 6)); 129 µM in the data set on NMDA receptors (NMDARs) (read-out: IC50 for ATL inhibition of NMDAR currents, −30 mV, 0.25 mM Ca2+); 63 ± 9.3 µM in the data set with NMDA receptors (NMDARs) (read-out: IC50 for ATL inhibition of NMDAR currents, −70 mV, 0.25 mM Ca2+ in bathing solution, 100 μM NMDA + 30 μM Gly); 37.6 ± 7.7 µM with NMDA receptors (NMDARs) (read-out: IC50 for ATL inhibition of NMDAR currents, −70 mV, 0.5 mM Ca2+, 100 μM NMDA + 30 μM Gly). Further, the IC50 in the data set with NMDA receptors (NMDARs) (read-out: IC50 for ATL inhibition of NMDAR currents, −70 mV, 1 mM Ca2+, BAPTA-loaded neurons) is 106 ± 9.5 µM; in the data set with NMDA receptors (NMDARs) (read-out: IC50 for ATL inhibition of NMDAR currents, −70 mV, 1 mM Ca2+, control (intact) neurons), 21.6 ± 8.7 µM; with NMDA receptors (NMDARs) (read-out: IC50 for ATL inhibition of NMDAR currents, −70 mV, 2 mM Ca2+), 4.9 ± 1 µM; in the data set with NMDA receptors (NMDARs) (read-out: IC50 for ATL inhibition of NMDAR currents, −70 mV, 4 mM Ca2+), 0.72 µM; in the data set on NMDA receptors (NMDARs) (read-out: IC50 for ATL inhibition of NMDAR currents, −100 mV, 0.25 mM Ca2+), 34.2 ± 9.8 µM. In the data set with NMDA receptors (NMDARs) (optimized by fitting all data with IC50(Vm,[Ca2+]) equation), the “[Ca2+] shift giving an e-fold change of IC50 (b value), optimized” value was found to be 690 µM. Besides, in the data set on NMDA receptors (NMDARs) (single exponential fit of IC50 vs [Ca2+], −70 mV), the “[Ca2+] shift giving an e-fold change of IC50 (b value)” value turned out to be 630 µM. The Hill coefficient h is reported as 1.4 ± 0.1 in the data set on NMDA receptors (NMDARs) (−70 mV, 0.25 mM Ca2+); 1.5 ± 0.1 in the data set with NMDA receptors (NMDARs) (−70 mV, 0.5 mM Ca2+); 1.6 ± 0.5 with NMDA receptors (NMDARs) (−70 mV, 1 mM Ca2+); 1.2 ± 0.1 with NMDA receptors (NMDARs) (−70 mV, 2 mM Ca2+); 1.5 ± 0.2 in the data set with NMDA receptors (NMDARs) (−70 mV, 4 mM Ca2+). In addition, in the data set with NMDA receptors (NMDARs) (−70 mV, 0.25 mM Ca2+, Eq. 3), the “rate constant of binding (kon)” value came to 1600 ± 90 M⁻¹ s⁻¹. Moreover, the “rate constant of dissociation (koff)” value in the data set with NMDA receptors (NMDARs) (−70 mV, 0.25 mM Ca2+, Eq. 4) came to 0.204 ± 0.005 s⁻¹. Also, the Kd with NMDA receptors (NMDARs) (−70 mV, 0.25 mM Ca2+, Eq. 5, read-out: apparent equilibrium dissociation constant (Kd = koff/kon)) is 128 ± 7.8 µM. The “therapeutic window for ATL concentrations in the blood plasma” value in data set [1] (blood plasma) is 0.3 to 1 µM. Also, the “ATL concentration in brain tissue” value in data set [1] (brain tissue) was not above 10 µM.

Consider `NC12CC3CC(CC(C3)C1)C2` [amantadine], for which, in the data set on NMDARs, the “δ, fraction of the membrane electric field” value was 0.72.

On to `CC12CC3CC(C)(C1)CC(N)(C3)C2` [memantine], for which, in the data set with NMDARs (by different estimates), the “δ, fraction of the membrane electric field” value is listed as 0.65–0.91. In the data set on GluN1/GluN2A NMDARs, the “effect on recovery from desensitization” value is recorded as “slows the rate of recovery from desensitization of GluN1/GluN2A NMDARs”.
